Results: US3974140A, “Ureidoacetamido-penicillins” (Bayer Aktiengesellschaft, priority 1970, dated 1976)

Legend:
Psdm. aerug. Walter [1] = assay: MIC, liquid medium test tube series dilution test; format: cell-based, Pseudomonas aerug.; details: 24 hours, 37°C
In short: (§1)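 Values are minimum inhibitory concentrations in units/ml, taken as the first clear (non-turbid) tube of a dilution series. Tubes of complete liquid medium were incubated 24 h at 37°C.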

Psdm. aerug. Bonn = assay: MIC, liquid medium test tube series dilution test; format: cell-based, Pseudomonas aerug.; details: 24 hours, 37°C
In short: as §1

Staph. aureus 1777 E = assay: MIC, liquid medium test tube series dilution test; format: cell-based, Staphylococcus aureus; details: 24 hours, 37°C
In short: as §1

Staph. aureus 133 [2] = assay: MIC, liquid medium test tube series dilution test; format: cell-based, Staphylococcus aureus; details: Staph. aureus 133, 24 hours, 37°C
In short: as §1

Staph. aureus 133 [3] = assay: Surviving mice after intraperitoneal infection and subcutaneous therapy; format: in vivo, white mice, CF1 strain; details: 2 × 200 units/mouse s.c.
Experimental: (§2) The experiments on animals (see Table 3) were carried out with white mice of the CF1 strain. The infection took place intraperitoneally with the particular bacterium indicated.

E. coli 183/58 = assay: MIC, liquid medium test tube series dilution test; format: cell-based; details: E. coli 183/58, 24 hours, 37°C
In short: as §1

Klebsiella 63 = assay: MIC, liquid medium test tube series dilution test; format: cell-based; details: Klebsiella 63, 24 hours, 37°C
In short: as §1

E. coli 14 = assay: MIC, liquid medium test tube series dilution test; format: cell-based; details: E. coli 14, 24 hours, 37°C
In short: as §1

Klebsiella K 10 = assay: MIC, liquid medium test tube series dilution test; format: cell-based; details: Klebsiella K 10, 24 hours, 37°C
In short: as §1

E. coli A 261 = assay: MIC, liquid medium test tube series dilution test; format: cell-based; details: E. coli A 261, 24 hours, 37°C
In short: as §1

E. coli C 165 = assay: MIC, liquid medium test tube series dilution test; format: cell-based; details: E. coli C 165, 24 hours, 37°C
In short: as §1

Klebsiella = details: background statement; cited from earlier work
Proteus vulg. 3400 = assay: MIC, liquid medium test tube series dilution test; format: cell-based, Proteus vulgaris; details: Proteus vulg. 3400, 24 hours, 37°C
In short: as §1

Proteus vulg. 1017 = assay: MIC, liquid medium test tube series dilution test; format: cell-based, Proteus vulgaris; details: Proteus vulg. 1017, 24 hours, 37°C
In short: as §1

Pseudomon. aer. F 41 = assay: Surviving mice after intraperitoneal infection and subcutaneous therapy; format: in vivo, white mice, CF1 strain; details: 30 min before and 2, 4, 6 hours after infection, 1st day
Experimental: as §2

[4] = Acute toxicity (LD50), intravenous injection into the vein of the tail; format: in vivo; details: mouse, in vivo, iv
Text: Acute toxicity (LD50) in white mice after
intravenous injection into the vein of the […]

Acid stability = format: physicochemical; details: pH 1 where stated
[5] = test system: Streptoc. faec. ATCC 9790; assay: MIC, liquid medium test tube series dilution test; format: cell-based; details: Strep. faec. (Enterococcus) ATCC 9790, 24 hours, 37°C
In short: as §1

E. coli = assay: MIC, liquid medium test tube series dilution test; format: cell-based; details: strain not given, 24 hours
In short: as §1

Proteus vulgaris 1017 = assay: Reduction in number of bacteria/ml of blood after subcutaneous administration; format: in vivo, mouse
Text: Reduction in number of bacteria/ml of blood after subcutaneous
administration of Penicillin No. 83.
Infection took place intraperitoneally with Proteus vulgaris 1017, 8
× 10^5 /mouse; ampicillin-resistant.

Psdm. aerug. Walter [6] = assay: Surviving mice after intraperitoneal infection and subcutaneous therapy; format: in vivo, white mice, CF1 strain; details: compared with carbenicillin
Experimental: as §2

Compound | MIC (Psdm. aerug. Walter [1]) | MIC (Psdm. aerug. Bonn) | MIC (Staph. aureus 1777 E) | MIC (Staph. aureus 133 [2]) [units/ml] | Number of surviving mice (Staph. aureus 133 [3]; 1 day) [%] | Number of surviving mice (Staph. aureus 133 [3]; 2 days) [%] | Number of surviving mice (Staph. aureus 133 [3]; 3 days) [%] | Number of surviving mice (Staph. aureus 133 [3]; 5 days) [%] | MIC (E. coli 183/58) [units/ml] | MIC (Klebsiella 63) | MIC (E. coli 14) | MIC (Klebsiella K 10) | MIC (E. coli A 261) | MIC (E. coli C 165) [units/ml] | Effectiveness against Klebsiella infections (Klebsiella) | MIC (Proteus vulg. 3400) | MIC (Proteus vulg. 1017) | LD50 [4] [mg/kg] | Stability to acid (Acid stability) | MIC [5] | also measured
CC1(C)S[C@@H]2[C@H](NC(=O)[C@H](N)c3ccccc3)C(=O)N2[C@H]1C(=O)O [Ampicillin, D(-)-α-Aminobenzylpenicillin, reference compound] | 200 units/ml | 200 units/ml | 200 units/ml | < 1.0 | 100 | 100 | 100 | 100 | 200 | 100-200 units/ml | ~ 0.8 units/ml | 100-200 units/ml | > 400 units/ml | 6.25 | not capable of effectively combating Klebsiella infections | > 400 units/ml | 400 units/ml |  |  |  | 
CC1(C)S[C@@H]2[C@H](NC(=O)C(C(=O)O)c3ccccc3)C(=O)N2[C@H]1C(=O)O (stereo partly drawn) [Carbenicillin] |  |  |  |  |  |  |  |  |  |  |  |  |  |  | only effective in man in the case of infections by Klebsiella bacteria if it is administered in continuing high doses |  |  | 2700 |  |  | Number of surviving mice (Pseudomon. aer. F 41; Dose E = 50,000 units/kg): 0%; Number of surviving mice (Pseudomon. aer. F 41; Dose F = 75,000 units/kg): 20%; Number of surviving mice (Pseudomon. aer. F 41; Dose G = 150,000 units/kg): 70%; Number of surviving mice (Pseudomon. aer. F 41; Dose H = 200,000 units/kg): 70%
CC(=O)N(C)C(=O)N[C@@H](C(=O)N[C@@H]1C(=O)N2[C@@H]1SC(C)(C)[C@@H]2C(=O)O)c1ccccc1 [Example 66A, Sodium D(-)-α-(3-acetyl-3-methyl-ureido)-benzylpenicillin] | 12.5 units/ml | 6.25 units/ml | 50 units/ml | < 0.78 | 100 | 90 | 70 | 70 | 50 | 50 units/ml | 3.12 units/ml | 50 units/ml | > 400 units/ml | 12.5 |  | 100 units/ml | 50 units/ml | > 4000 | remain microbiologically active at pH 1 for over one hour | 25 units/ml | 
Cc1ccc(C(=O)N(C)C(=O)N[C@@H](C(=O)N[C@@H]2C(=O)N3[C@@H]2SC(C)(C)[C@@H]3C(=O)O)c2ccccc2)cc1 [Example 73, Sodium D(-)-α-(3-p-methylbenzoyl-3-methyl-ureido)-benzylpenicillin] | ~ 50 units/ml | 12.5 units/ml |  | 0.78 | 80 | 70 | 50 | 40 | 1.56 | 12.5-25 units/ml | 3.12 units/ml | 25-50 units/ml | 200-400 units/ml | 6.25 |  | 12.5 units/ml | 6.25 units/ml |  |  | 50-100 units/ml | Effectiveness (MIC) (E. coli): 312 units/ml
COc1ccc(C(=O)N(C)C(=O)N[C@@H](C(=O)N[C@@H]2C(=O)N3[C@@H]2SC(C)(C)[C@@H]3C(=O)O)c2ccccc2)cc1[N+](=O)[O-] [Example 83, Sodium D(-)-α-(3-[4-methoxy-3-nitrobenzoyl]-3-methyl-ureido)-benzylpenicillin] | 100 units/ml | 50 units/ml |  | < 0.78 | 80 | 70 | 70 | 70 | 6.25 | 50 units/ml | 3.12 units/ml | 25 units/ml | 400 units/ml | 6.25 |  | 6.25 units/ml | 25 units/ml | > 1200 | remain microbiologically active at pH 1 for over one hour | 100 units/ml | Number of bacteria/ml of blood (Proteus vulgaris 1017; 1 × 50,000 units/kg s.c. 30 min after infection, 30 mins.): 9 × 10^3 bacteria/ml of blood; Number of bacteria/ml of blood (Proteus vulgaris 1017; 1 × 50,000 units/kg s.c., 60 mins.): 7 × 10^3 bacteria/ml of blood; Number of bacteria/ml of blood (Proteus vulgaris 1017; 1 × 50,000 units/kg s.c., 90 mins.): 2 × 10^3 bacteria/ml of blood; Number of bacteria/ml of blood (Proteus vulgaris 1017; 1 × 50,000 units/kg s.c., 120 mins.): 1 × 10^3 bacteria/ml of blood; Number of bacteria/ml of blood (Proteus vulgaris 1017; 1 × 50,000 units/kg s.c., 150 mins.): 3 × 10^3 bacteria/ml of blood; Number of bacteria/ml of blood (Proteus vulgaris 1017; 1 × 50,000 units/kg s.c., 180 mins.): 8 × 10^3 bacteria/ml of blood; Number of bacteria/ml of blood (Proteus vulgaris 1017; 50,000 units/kg s.c. after 30 and 90 min, 60 mins.): 8 × 10^3 bacteria/ml of blood; Number of bacteria/ml of blood (Proteus vulgaris 1017; 50,000 units/kg s.c. after 30 and 90 min, 90 mins.): ~5 × 10^3 bacteria/ml of blood; Number of bacteria/ml of blood (Proteus vulgaris 1017; 50,000 units/kg s.c. after 30 and 90 min, 120 mins.): 2 × 10^2 bacteria/ml of blood; Number of bacteria/ml of blood (Proteus vulgaris 1017; 50,000 units/kg s.c. after 30 and 90 min, 150 mins.): < 10^1 bacteria/ml of blood; Number of bacteria/ml of blood (Proteus vulgaris 1017; 50,000 units/kg s.c. after 30 and 90 min, 180 mins.): < 10^1 bacteria/ml of blood; Number of bacteria/ml of blood (Proteus vulgaris 1017; 50,000 units/kg s.c. after 30 min and further 50,000 units/kg after 90 min, 30 mins.): 2 × 10^4 bacteria/ml of blood
CN(C(=O)N[C@@H](C(=O)N[C@@H]1C(=O)N2[C@@H]1SC(C)(C)[C@@H]2C(=O)O)c1ccccc1)C(=O)c1ccccc1Cl [Example 107] | 0.8-4 units/ml | 0.8-4 units/ml | 20-100 units/ml | < 0.8 |  |  |  |  | < 0.8 | 4-20 units/ml | < 0.8 units/ml | ~ 4 units/ml |  | < 0.8 |  | 0.8-4 units/ml | 0.8-4 units/ml |  |  | 4-20 units/ml | Effectiveness in animal experiments against Pseudomonas aerug. Walter (Psdm. aerug. Walter [6]): better than carbenicillin
